ChEMBL document CHEMBL1201862, “PubChem BioAssay data set” (2004)
Activity calls are given as the source filed them.

Tests used:
Leucine aminopeptidase = target: T1, Leucine aminopeptidase (Plasmodium falciparum 3D7, UniProt Q8IL11); experiment: P. falciparum M17LAP inhibitors, primary screen, biochemical, fluorogenic H-Leu-NHMec substrate, 1536-well (AID 1619); type: functional
T1 sequence (Q8IL11 whole entry): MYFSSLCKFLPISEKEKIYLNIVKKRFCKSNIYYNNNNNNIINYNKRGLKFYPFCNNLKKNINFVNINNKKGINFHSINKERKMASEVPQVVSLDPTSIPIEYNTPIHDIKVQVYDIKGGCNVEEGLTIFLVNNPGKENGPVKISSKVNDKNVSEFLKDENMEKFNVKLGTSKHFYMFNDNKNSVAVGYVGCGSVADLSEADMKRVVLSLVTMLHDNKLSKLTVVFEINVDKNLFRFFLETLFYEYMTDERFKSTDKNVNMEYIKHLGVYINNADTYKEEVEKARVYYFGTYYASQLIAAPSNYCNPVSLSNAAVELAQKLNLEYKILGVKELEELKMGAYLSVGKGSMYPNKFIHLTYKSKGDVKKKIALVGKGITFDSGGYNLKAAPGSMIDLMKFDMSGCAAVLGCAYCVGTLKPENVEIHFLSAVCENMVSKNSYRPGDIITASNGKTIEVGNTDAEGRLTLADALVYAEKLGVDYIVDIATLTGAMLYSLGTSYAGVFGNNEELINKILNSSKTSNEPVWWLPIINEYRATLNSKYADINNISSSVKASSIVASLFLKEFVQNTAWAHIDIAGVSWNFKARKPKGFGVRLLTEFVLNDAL

Aspartyl aminopeptidase = target: T2, Aspartyl aminopeptidase (Plasmodium falciparum 3D7, UniProt Q8I2J3); experiment: Counterscreen for inhibitors of M1 and M17 aminopeptidases: QFRET-based biochemical high throughput dose response assay for inhibitors of the Plasmodium falciparum M18 Aspartyl Aminopeptidase (PFM18AAP). [Related PubChem assays: 1619 (Screening assay (M17LAP inhibitors).), 1445 (Screening assay (M1AAP inhibitors).)]
T2 sequence (Q8I2J3 whole entry): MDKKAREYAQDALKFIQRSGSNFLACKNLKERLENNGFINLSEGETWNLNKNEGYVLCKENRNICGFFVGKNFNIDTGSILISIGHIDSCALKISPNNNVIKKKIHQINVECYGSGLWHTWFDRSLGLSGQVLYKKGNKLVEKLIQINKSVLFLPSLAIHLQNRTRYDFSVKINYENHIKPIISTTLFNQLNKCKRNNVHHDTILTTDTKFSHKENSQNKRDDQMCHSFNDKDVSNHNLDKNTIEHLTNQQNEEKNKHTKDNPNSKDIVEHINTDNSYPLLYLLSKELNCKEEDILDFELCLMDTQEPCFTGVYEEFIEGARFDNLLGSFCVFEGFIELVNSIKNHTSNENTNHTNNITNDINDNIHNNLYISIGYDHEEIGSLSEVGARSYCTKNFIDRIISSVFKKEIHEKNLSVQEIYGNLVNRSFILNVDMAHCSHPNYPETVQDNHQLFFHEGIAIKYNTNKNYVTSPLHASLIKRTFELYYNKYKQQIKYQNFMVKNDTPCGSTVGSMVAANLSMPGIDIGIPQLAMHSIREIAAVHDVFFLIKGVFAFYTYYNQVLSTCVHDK

Procathepsin L = Procathepsin L (Homo sapiens, UniProt P07711); experiment: cathepsin L inhibitors, dose response, counter-screen for M1/M17 aminopeptidase inhibitor project, biochemical, QFRET, 1536-well (AID 2214)
Sequence of Procathepsin L (P07711 whole entry): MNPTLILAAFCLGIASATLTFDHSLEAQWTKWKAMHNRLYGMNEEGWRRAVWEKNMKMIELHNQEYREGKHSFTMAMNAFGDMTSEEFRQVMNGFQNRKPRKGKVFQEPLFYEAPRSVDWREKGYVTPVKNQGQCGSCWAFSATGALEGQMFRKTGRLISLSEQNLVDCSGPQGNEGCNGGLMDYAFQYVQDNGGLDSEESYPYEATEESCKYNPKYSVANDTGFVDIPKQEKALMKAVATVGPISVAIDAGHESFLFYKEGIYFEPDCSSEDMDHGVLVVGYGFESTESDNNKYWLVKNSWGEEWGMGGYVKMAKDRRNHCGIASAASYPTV

Estrogen receptor beta [1] = target: T3, Estrogen receptor beta (Homo sapiens, UniProt Q92731); experiment: ERβ–SRC-3 coactivator interaction inhibitors, confirmation, orthogonal assay, biochemical, ELISA, streptavidin-HRP readout (AID 1060)
T3 sequence (Q92731 whole entry): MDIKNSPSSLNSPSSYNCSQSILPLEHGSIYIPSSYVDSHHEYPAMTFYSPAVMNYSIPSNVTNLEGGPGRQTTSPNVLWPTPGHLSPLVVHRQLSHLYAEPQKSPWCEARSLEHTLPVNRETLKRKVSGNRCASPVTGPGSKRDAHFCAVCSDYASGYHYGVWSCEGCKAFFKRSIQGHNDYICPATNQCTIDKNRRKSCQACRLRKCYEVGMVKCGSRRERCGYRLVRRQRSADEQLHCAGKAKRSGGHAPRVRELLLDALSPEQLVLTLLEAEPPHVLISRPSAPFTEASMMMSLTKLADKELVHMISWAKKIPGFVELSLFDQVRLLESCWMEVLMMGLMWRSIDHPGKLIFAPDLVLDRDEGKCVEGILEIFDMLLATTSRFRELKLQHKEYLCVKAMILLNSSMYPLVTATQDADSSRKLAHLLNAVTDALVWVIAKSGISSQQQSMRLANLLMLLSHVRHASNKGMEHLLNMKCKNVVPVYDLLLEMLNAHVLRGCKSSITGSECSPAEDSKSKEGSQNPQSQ

Estrogen receptor beta [2] = target: T3, Estrogen receptor beta
Cytochrome P450 2C19 [3] = target: T4, Cytochrome P450 2C19 (Homo sapiens, UniProt P33261); experiment: Cytochrome panel assay with activity outcomes. Panel member name: p450-cyp2c19 Compounds with AC50 equal or less than 10 uM are considered active; type: functional; details: read-out: AC50
T4 sequence (P33261 whole entry): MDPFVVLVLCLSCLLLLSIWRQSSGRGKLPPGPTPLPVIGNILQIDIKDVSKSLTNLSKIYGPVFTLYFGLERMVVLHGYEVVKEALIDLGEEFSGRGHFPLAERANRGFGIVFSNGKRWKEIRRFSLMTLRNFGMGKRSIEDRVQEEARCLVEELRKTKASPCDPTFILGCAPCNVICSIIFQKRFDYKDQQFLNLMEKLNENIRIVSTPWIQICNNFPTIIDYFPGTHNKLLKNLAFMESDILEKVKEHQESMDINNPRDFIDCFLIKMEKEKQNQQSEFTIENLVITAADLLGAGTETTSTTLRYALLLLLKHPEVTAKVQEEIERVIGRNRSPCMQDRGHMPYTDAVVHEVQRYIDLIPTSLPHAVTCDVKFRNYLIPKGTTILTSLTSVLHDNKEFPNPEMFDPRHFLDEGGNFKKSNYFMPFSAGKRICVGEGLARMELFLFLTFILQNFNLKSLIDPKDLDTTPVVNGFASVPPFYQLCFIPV

Cytochrome P450 2C19 [4] = target: T4, Cytochrome P450 2C19; experiment: qHTS Assay for Inhibitors and Substrates of Cytochrome P450 2C19. [Related pubchem assays: 410 ]; type: ADME; details: read-out: Potency
[5] = target: T5, Corticotropin-releasing factor receptor 2/Corticotropin-releasing factor-binding protein (Homo sapiens, UniProt P24387+Q13324); experiment: activators of CRF receptor 2 with binding protein – uHTS hits, confirmation (AID 602473); type: functional; details: read-out: EC50_Mean
T5 sequence (Q13324 whole entry): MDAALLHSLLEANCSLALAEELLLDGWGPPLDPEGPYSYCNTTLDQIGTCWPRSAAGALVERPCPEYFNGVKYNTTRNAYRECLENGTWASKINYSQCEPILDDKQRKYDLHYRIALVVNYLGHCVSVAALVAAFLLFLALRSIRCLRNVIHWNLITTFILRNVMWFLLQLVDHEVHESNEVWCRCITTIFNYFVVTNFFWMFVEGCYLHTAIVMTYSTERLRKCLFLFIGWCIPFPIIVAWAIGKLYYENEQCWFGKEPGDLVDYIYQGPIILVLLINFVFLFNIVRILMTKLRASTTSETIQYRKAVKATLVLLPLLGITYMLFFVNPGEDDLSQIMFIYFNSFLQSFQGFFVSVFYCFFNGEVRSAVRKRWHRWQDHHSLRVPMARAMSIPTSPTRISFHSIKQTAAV
T5 sequence (P24387 whole entry): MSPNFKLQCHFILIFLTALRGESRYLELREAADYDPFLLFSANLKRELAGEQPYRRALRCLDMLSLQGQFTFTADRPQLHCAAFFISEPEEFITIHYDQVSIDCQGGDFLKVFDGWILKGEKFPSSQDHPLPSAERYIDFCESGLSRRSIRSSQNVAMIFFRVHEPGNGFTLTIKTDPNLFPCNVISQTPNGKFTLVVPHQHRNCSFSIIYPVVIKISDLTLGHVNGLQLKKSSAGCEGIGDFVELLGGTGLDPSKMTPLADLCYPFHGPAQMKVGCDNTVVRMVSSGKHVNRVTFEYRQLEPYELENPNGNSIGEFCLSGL

[6] = Luminescence Cell-Based Dose Confirmation HTS to Identify Inhibitors of Polyadenylation.; type: functional

COC(=O)c1c(NC(=O)C2CC=CCC2C(=O)O)sc(C)c1C (centres undefined)
IC50 (Leucine aminopeptidase): 4.32 µM (active)
IC50 (Aspartyl aminopeptidase): > 73.5 µM (not active)
IC50 (Procathepsin L): > 59.6 µM (not active)

c1ccc(-c2nnc3sc(Cc4cccs4)nn23)cc1
IC50 (Estrogen receptor beta [1]): > 109 µM (not active)
IC50 (Estrogen receptor beta [2]): 21.6 µM (active)

COc1cc2c(cc1C(F)(F)F)N(C(=O)Nc1cc(F)cc(-c3cccnc3)c1)CC2
AC50 (Cytochrome P450 2C19 [3]): 10 µM (inconclusive)
AC50 (Cytochrome P450 2C19 [4]): 1 µM (inconclusive)

C/C(=C\C=C(C#N)C#N)c1cc(C#N)c(N)o1
EC50 [5]: 5.13 µM (active)
EC50 [6]: 11.1 µM (active)
